≈ marks a conversion by molar mass, not a printed value. Calls of active or inactive are those of the source. The rule behind the calls is not given here.

Experiment [1] deals with Escherichia coli. Put plainly: Antibacterial activity against Escherichia coli DG2 at 1 mg/ml after 24 hrs by agar-well diffusion method. Type of experiment: functional, organism-based. (In agar diffusion tests the substance spreads into inoculated agar from a disc or well.)
Experiment [2] has as its target T1, Acetylcholinesterase (Homo sapiens, UniProt P22303). The experiment in a line: Inhibition of AChE (unknown origin) using acetyl thiocholine iodide as substrate after 30 mins by Ellman's method. (Ellman's reagent forms a yellow product with free thiols.)
In experiment [3] the test system is Salmonella typhi. The experiment in a line: Antibacterial activity against Salmonella typhi at 1 mg/ml after 24 hrs by agar-well diffusion method. Type of experiment: functional, organism-based. The following applies: Salmonella enterica subsp. enterica serovar Typhi.
Experiment [4] has as its target T2, Cholinesterase (Homo sapiens, UniProt P06276). Put plainly: Inhibition of BChE (unknown origin) using butyryl thiocholine iodide as substrate after 30 mins by Ellman's method.
For experiment [5], the system named is Staphylococcus aureus. Put plainly: Antibacterial activity against Staphylococcus aureus at 1 mg/ml after 24 hrs by agar-well diffusion method. Type of experiment: functional. The following applies: read-out: IZ.
The target in experiment [6] is T2, Cholinesterase. The experiment in a line: Inhibition of BChE (unknown origin) using butyryl thiocholine iodide as substrate at 0.25 mM after 30 mins by Ellman's method.
In experiment [7] the test system is Pseudomonas aeruginosa. The experiment in a line: Antibacterial activity against Pseudomonas aeruginosa at 1 mg/ml after 24 hrs by agar-well diffusion method. Type of experiment: functional. The following applies: for zone of inhibition at 1000 µg/mL: read-out: IZ.
Experiment [8] has as its system Escherichia coli. Put plainly: Antibacterial activity against Escherichia coli 5604 at 1 mg/ml after 24 hrs by agar-well diffusion method. Type of experiment: functional, organism-based.
For experiment [9], the system named is Vibrio cholerae. The experiment in a line: Antibacterial activity against Vibrio cholerae at 1 mg/ml after 24 hrs by agar-well diffusion method. Type of experiment: functional, organism-based.
Experiment [10] deals with Escherichia coli. Put plainly: Antibacterial activity against Escherichia coli DH5[alpha] after 18 to 24 hrs by Micro-titer assay. Type of experiment: functional.
The target of experiment [11] is T1, Acetylcholinesterase. The experiment in a line: Inhibition of AChE (unknown origin) using acetyl thiocholine iodide as substrate at 0.25 mM after 30 mins by Ellman's method.
The subject of experiment [12] is Staphylococcus aureus. The experiment in a line: Antibacterial activity against Staphylococcus aureus after 18 to 24 hrs by Micro-titer assay. Type of experiment: functional.
Experiment [13] has as its system Pseudomonas aeruginosa. The experiment in a line: Antibacterial activity against Pseudomonas aeruginosa after 18 to 24 hrs by Micro-titer assay. Type of experiment: functional.
For experiment [14], the system named is Escherichia coli. Put plainly: Antibacterial activity against Escherichia coli DH5[alpha] at 1 mg/ml after 24 hrs by agar-well diffusion method. The following applies: read-out: IZ. Type of experiment: functional.
For experiment [15], the target named is T2, Cholinesterase. The experiment in a line: Inhibition of BChE (unknown origin) using butyryl thiocholine iodide as substrate at 0.125 mM after 30 mins by Ellman's method.
Experiment [16] has as its target T1, Acetylcholinesterase. Put plainly: Inhibition of AChE (unknown origin) using acetyl thiocholine iodide as substrate at 0.125 mM after 30 mins by Ellman's method.
Experiment [17] concerns the target T1, Acetylcholinesterase. The experiment in a line: Inhibition of AChE (unknown origin) using acetyl thiocholine iodide as substrate at 0.5 mM after 30 mins by Ellman's method.
Experiment [18] deals with T2, Cholinesterase. The experiment in a line: Inhibition of BChE (unknown origin) using butyryl thiocholine iodide as substrate at 0.5 mM after 30 mins by Ellman's method.

T2 sequence (P06276 whole entry, the tested form may be a part): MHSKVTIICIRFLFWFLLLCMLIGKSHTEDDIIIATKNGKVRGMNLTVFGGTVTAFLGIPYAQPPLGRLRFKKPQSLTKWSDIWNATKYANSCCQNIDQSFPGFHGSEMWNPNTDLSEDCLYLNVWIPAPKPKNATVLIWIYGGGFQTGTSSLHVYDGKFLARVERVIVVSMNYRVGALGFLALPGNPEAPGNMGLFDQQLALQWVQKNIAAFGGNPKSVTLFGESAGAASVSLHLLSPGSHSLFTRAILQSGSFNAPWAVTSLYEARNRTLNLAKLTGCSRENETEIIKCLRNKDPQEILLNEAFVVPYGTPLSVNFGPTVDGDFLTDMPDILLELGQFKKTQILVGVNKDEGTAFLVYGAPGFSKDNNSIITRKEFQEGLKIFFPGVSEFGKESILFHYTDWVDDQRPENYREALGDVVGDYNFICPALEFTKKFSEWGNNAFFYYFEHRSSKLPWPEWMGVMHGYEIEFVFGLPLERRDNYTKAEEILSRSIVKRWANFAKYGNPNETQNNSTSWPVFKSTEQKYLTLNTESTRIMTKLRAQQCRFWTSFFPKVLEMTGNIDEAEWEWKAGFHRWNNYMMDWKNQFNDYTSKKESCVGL
T1 sequence (P22303 whole entry, the tested form may be a part): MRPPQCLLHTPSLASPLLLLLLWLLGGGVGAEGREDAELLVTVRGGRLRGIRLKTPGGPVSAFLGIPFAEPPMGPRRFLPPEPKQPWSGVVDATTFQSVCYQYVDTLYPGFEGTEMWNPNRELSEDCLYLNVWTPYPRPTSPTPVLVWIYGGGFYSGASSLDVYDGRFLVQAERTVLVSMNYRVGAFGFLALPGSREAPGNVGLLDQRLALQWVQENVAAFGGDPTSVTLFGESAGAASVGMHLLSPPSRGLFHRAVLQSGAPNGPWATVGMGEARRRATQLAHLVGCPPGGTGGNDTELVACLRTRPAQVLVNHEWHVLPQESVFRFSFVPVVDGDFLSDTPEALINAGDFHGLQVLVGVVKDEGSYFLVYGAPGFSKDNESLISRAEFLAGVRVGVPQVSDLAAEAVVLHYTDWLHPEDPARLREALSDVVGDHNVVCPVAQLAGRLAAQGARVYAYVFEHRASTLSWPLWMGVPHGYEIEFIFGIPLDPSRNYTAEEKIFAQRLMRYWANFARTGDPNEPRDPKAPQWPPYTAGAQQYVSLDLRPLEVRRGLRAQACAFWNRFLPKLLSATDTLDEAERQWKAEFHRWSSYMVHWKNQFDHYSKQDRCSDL

On to `O=C1NC(=S)NC(=O)C1=CNNC(=S)Nc1ccc(Cl)cc1`, for which the “inhibition zone (IZ)” value in experiment [1], in [3], in experiment [7], in experiment [8] and in experiment [9] was “inactive” each time. Further, the IC50 in experiment [2] turned out to be 121.11 µmol; in experiment [4], 75.41 µmol. In addition, the zone of inhibition at 1000 µg/mL in [5] worked out at 15 mm; in [14], 14 mm. Further, the inhibition in [6] was determined as 81.6%; in experiment [11] it was 62%. For the same molecule, the MIC worked out at 200 mg/L (≈ 562 µM) in experiment [10], 100 mg/L (≈ 281 µM) in experiment [12] and 400 mg/L (≈ 1120 µM) in [13].

`COc1ccc(NC(=S)NNC=C2C(=O)NC(=S)NC2=O)cc1`: the IC50 in experiment [2] amounted to 206.31 µmol; in experiment [4], 56.81 µmol. The values for the inhibition in [6] and in experiment [11] were 85.4% and 59.1%, respectively.

For `O=C1NC(=S)NC(=O)C1=CNNC(=S)Nc1ccc(Br)cc1`, the figures for the IC50 in [2] and in experiment [4] were 79.21 µmol and 68.41 µmol, respectively. Besides, the results for the inhibition in [6] and in experiment [11] were 84.5% and 80.4%, respectively.

As for `CC(=O)NC=C1C(=O)NC(=O)NC1=O`, the “inhibition zone (IZ)” value in experiment [1], in experiment [3], in [8] and in experiment [9] was “inactive” in each case. In addition, the results for the IC50 in experiment [2] and in [4] were 90.91 µmol and 116.61 µmol, respectively. Further, the zone of inhibition at 1000 µg/mL in experiment [5] was found to be 18 mm; in [7] it was 18 mm; in experiment [14] it was 15 mm. In addition, the inhibition in experiment [6] was determined as 88.3%; in [11] it was 77.7%. The MIC in experiment [10] is 100 mg/L (≈ 507 µM); in [12] it was 100 mg/L (≈ 507 µM); in [13], 200 mg/L (≈ 1010 µM).

As for `O=C(NNC=C1C(=O)NC(=S)NC1=O)Nc1ccccc1`, the figures for the inhibition in experiment [15] and in experiment [16] were 85.1% and 66.8%, respectively. Moreover, the IC50 in experiment [2] came to 74.21 µmol; in [4], 3.31 µmol.

Take `O=C1NC(=S)NC(=O)C1=CNNC(=S)Nc1ccc(C(F)(F)F)cc1`: the results for the IC50 in experiment [2] and in experiment [4] were 99.41 µmol and 8.11 µmol, respectively. For the same molecule, the inhibition in [6] was 78.2%; in experiment [11], 75.6%.

`O=C1NC(=S)NC(=O)C1=CNNC(=S)Nc1ccccc1`: the IC50 in experiment [2] worked out at 115.11 µmol; in experiment [4] it was 57.11 µmol. For the same molecule, the inhibition in experiment [6] worked out at 83.2%; in [11], 73.2%.

As to `O=C1NC(=O)C(=CNNC(=O)Nc2ccccc2)C(=O)N1`, the results for the inhibition in experiment [15] and in experiment [16] were 79.2% and 39.6%, respectively. The IC50 in experiment [4] was determined as 38.51 µmol.

As to `O=C1NC(=O)C(=CNNC(=S)Nc2cccc(C(F)(F)F)c2)C(=O)N1`, the inhibition was determined as 83.3% in experiment [17] and 75.9% in experiment [18]. The IC50 in [2] stood at 40.78 µmol; in experiment [4], 136.91 µmol.

As to `O=C1NC(=S)NC(=O)C1=CNNC(=S)Nc1ccc(F)cc1`, the IC50 in experiment [2] came out at 78.41 µmol; in [4] it was 57.81 µmol. In addition, the inhibition was determined as 88.8% in experiment [6] and 86.9% in experiment [11].

As for `Cc1cccc(Cl)c1NC(=S)NNC=C1C(=O)NC(=O)NC1=O`, the inhibition in experiment [17] was 49.4%; in experiment [18], 75.8%. The same molecule registered an IC50 in experiment [4] of 8.81 µmol.

Turning to `O=C(N[C@H](CO)[C@H](O)c1ccc([N+](=O)[O-])cc1)C(Cl)Cl` [CHLORAMPHENICOL], the “inhibition zone (IZ)” value in experiment [1], in experiment [3], in experiment [8] and in experiment [9] was “inactive” throughout. Besides, the zone of inhibition at 1000 µg/mL in experiment [5], in [7] and in experiment [14] was 25 mm in each case. Also, the minimum inhibitory concentration (MIC) in [10] is 1.56 mg/L (≈ 4.83 µM); in experiment [12], less than 0.78 mg/L; in [13], 1.56 mg/L (≈ 4.83 µM).

Turning to `NC(=S)NNC=C1C(=O)NC(=O)NC1=O`, the figures for the IC50 in experiment [2] and in experiment [4] were 119.11 µmol and 56.51 µmol, respectively. Moreover, the inhibition turned out to be 87.5% in [6] and 65.8% in experiment [11].

`CNC(=O)Oc1ccc2c(c1)[C@]1(C)CCN(C)[C@@H]1N2C`: the inhibition in experiment [6] and in experiment [11] was 92.5% each time.

Consider `N#Cc1ccc(NC(=S)NNC=C2C(=O)NC(=O)NC2=O)cc1`, for which the IC50 in experiment [4] amounted to 231.61 µmol. Besides, the inhibition in experiment [6] came to 66.8%; in experiment [11] it was 11.4%.

What is called inhibition is the change of the read-out against control, counted positive when it falls. Higher therefore signals strong suppression. What is called MIC is the lowest concentration that inhibits growth of the organism.

Values taken from ChEMBL document CHEMBL2424571, “Synthesis, molecular docking studies, and in vitro screening of barbiturates/thiobarbiturates as antibacterial and cholinesterase inhibitors” (Med Chem Res, 2013).
